Test results: PubChem BioAssay (NCI)
Several values for one entry are separate records, joined by “and”; a condition that tells them apart may be missing. Equal values may be shown once.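 Cells were grown in 96-well plates and exposed to each compound for 48 hours at five concentrations; endpoints were interpolated linearly between bracketing concentrations, or set to the highest concentration if not reached. GI50: concentration for 50% inhibition of growth. TGI is the concentration that stops growth completely.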

What was measured:
Assay in all cases: inhibition of tumour cell growth, NCI panel, 48 h
OVCAR-3 ovarian = tested on: OVCAR-3 ovarian
SK-OV-3 ovarian = tested on: SK-OV-3 ovarian
M14 melanoma = tested on: M14 melanoma
786-0 renal = tested on: 786-0 renal
SW-620 colon = tested on: SW-620 colon
CAKI-1 renal = tested on: CAKI-1 renal
U251 CNS = tested on: U251 CNS
SR leukemia = tested on: SR leukemia
NCI/ADR-RES ovarian = tested on: NCI/ADR-RES ovarian
NCI-H522 lung = tested on: NCI-H522 lung

SMILES	GI50 (OVCAR-3 ovarian)	TGI (OVCAR-3 ovarian)	GI50 (SK-OV-3 ovarian)	TGI (SK-OV-3 ovarian)	GI50 (M14 melanoma)	TGI (M14 melanoma)	GI50 (786-0 renal)	TGI (786-0 renal)	GI50 (SW-620 colon)	TGI (SW-620 colon)	GI50 (CAKI-1 renal)	TGI (CAKI-1 renal)	GI50 (U251 CNS)	TGI (U251 CNS)	GI50 (SR leukemia)	TGI (SR leukemia)	GI50 (NCI/ADR-RES ovarian)	TGI (NCI/ADR-RES ovarian)	GI50 (NCI-H522 lung)	TGI (NCI-H522 lung)
O=C(NO)C(O)C(O)C(O)C(O)CO (stereo not given)	> 100 µM	> 100 µM	> 100 µM	> 100 µM	> 100 µM	> 100 µM	> 100000 nM and 55900 nM	> 100 µM	> 100000 nM	> 100 µM	31.3 µM	> 100 µM	> 100 µM	> 100 µM	75900 nM	> 100 µM	> 100 µM	> 100 µM	> 100 µM and 44.7 µM	> 100 µM
Cc1cccc(N2C(=O)/C(=C/c3ccc(N(CCC#N)CCC#N)cc3C)N=C2c2cc([N+](=O)[O-])ccc2Cl)c1	–	> 100 µM	–	> 100 µM	–	> 100 µM	–	> 100 µM	–	> 100 µM	–	> 100 µM	–	> 100 µM	–	> 100 µM	–	–	–	> 100 µM
CCOC(=O)Cc1csc(NC(=O)C(OC(=O)c2ccc(N)cc2)c2ccccc2)n1 (stereo not given)	20.5 µM	45.3 µM	46.7 µM	> 100 µM	22.6 µM	62.5 µM	48600 nM	> 100 µM	49500 nM	> 100 µM	39.6 µM	> 100 µM	45.5 µM	> 100 µM	21200 nM	> 100 µM	43.5 µM	> 100 µM	43 µM	> 100 µM
CCOC(=O)C1=C(c2ccccc2)N(Cc2ccccc2)C2(O)C=CC(=O)C3C(=O)N(c4ccccc4)C(=O)C132 (stereo not given)	2.11 µM	4.33 µM	3.29 µM	10.7 µM	1.92 µM	4.04 µM	2110 nM	5.34 µM	1810 nM	3.91 µM	3.08 µM	9.71 µM	1.51 µM	2.93 µM	1170 nM	4.13 µM	2.98 µM	17 µM	–	–
CC1(C)CC2(C)OC2C2(C1)N=NC(=Nc1ccccc1)O2 (stereo not given)	2.23 µM	4.81 µM	28.5 µM	> 100 µM	5.15 µM	19.2 µM	2330 nM	5.63 µM	2350 nM	9.28 µM	2.68 µM	12.5 µM	13 µM	26 µM	2560 nM	8.68 µM	4.44 µM	55.2 µM	1.61 µM	3.33 µM
CCNC(=O)Oc1ccc(/C(=C(\C)c2ccc(Cl)cc2)c2ccc(OCCN3CCCCC3)cc2)cc1	3.52 µM	13.4 µM	8.52 µM	21.3 µM	1.87 µM	3.8 µM	1790 nM	3.43 µM	2200 nM	4.97 µM	–	–	4.19 µM	14.5 µM	2980 nM	9.23 µM	5.59 µM	22.7 µM	14.1 µM	29.9 µM
